Test results taken from paper PMC12680861, “Comparative analysis of LJ-4378 and tirzepatide in mouse models of obesity and weight regain” (Archives of Pharmacal Research, 2025).

Columns and labels:
Type in all cases: in vivo, C57BL/6 J male mice
[1] = system: HFD-fed mice; test: Immunoblot of lipolytic, thermogenic and mitochondrial proteins in BAT and iWAT; serum FFA; conditions: for P-HSL, P-CREB, UCP1 and COXIV levels in BAT: western blot
Experimental: To evaluate the anti-obesity effect in vivo, mice fed either NCD or HFD for 10 weeks were subsequently treated for up to 4 weeks. To control for injection route-related variables, all mice received both intraperitoneal (I.P.) and subcutaneous (S.C.) injections. The administration were as follows: LJ-4378 treated mice received LJ-4378, which was synthesized in our laboratory at > 95% purity (1 mg/kg/day, I.P.) (Hou et al. [2010]; Kim et al. [2022]) along with the vehicle for TZP (40 mM Tris–HCl, pH 8, S.C.); TZP treated mice received TZP (Samms et al. [2021]; Kim et al. [2022]) (LY3298176, MedChemExpress, Monmouth Junction, NJ, USA) (10 nmol/kg/day, S.C.) along with the vehicle for LJ-4378 (0.2% DMSO, I.P.); vehicle control mice received both vehicles (0.2% DMSO, I.P. and 40 mM Tris–HCl, pH 8, S.C.)
Serum free fatty acid (FFA) levels were quantification using HR Series NEFA-HR (2) (Color Reagent A (#999–34691), Solvent A (#995–34791), Color Reagent B (#991–34891), Solvent B (#993–35191), and NEFA Standard Solution (#276–76491) (FUJIFILM Wako Pure Chemicals, Osaka, Japan), following the manufacturer’s instruction.
For protein extraction, we utilized PRO-RERP Protein Extraction Solution (17081, iNtRON Biotechnology, Gyeonggi-do, Korea), supplemented with […] […] Protein concentrations were determined using the Pierce BCA protein assay Kit (#23227, Thermo Fisher, Waltham, Massachusetts, USA) by measuring absorbance at 562 nm with a MultiSkan GO spectrophotometer (Thermo Fisher). The quantified proteins were loaded and separated in 12% SDS-PAGE gels and transferred to polyvinylidene difluoride (PVDF) membranes (Bio-Rad, Hercules, CA, USA). […] After secondary antibody incubation, membranes were washed 3 times with TBST and detected with the Fusion Solo chemiluminescence imaging system (Vilber Lourmat, France). EvolutionCapt (version 17.03) software and the ImageJ (National Institutes of Health, Bethesda, MD, USA) program were used for analysis and to quantify the protein level.

[2] = system: HFD-fed mice; test: Glucose tolerance test and fasting glucose in HFD-fed mice; conditions: for fasting glucose levels: 12-h fast; for glucose tolerance (intraperitoneal glucose tolerance test): 14 days treatment
[3] = system: WR mice; test: WR model: glucose metabolism, gWAT inflammation, hepatic steatosis at 4 weeks post-treatment; conditions: for macrophage marker F4/80 and CLS formation in gWAT: 4 weeks of the weight regaining phase
Excerpt: (§1) To assess post-treatment weight rebound (WR), the mice previously treated with vehicle, LJ-4378, or TZP were maintained on HFD for an additional 4 weeks following treatment cessation. Treatment protocols for the WR groups were identical to those of the HFD groups. In total, nine experimental groups were established: NCD + CTL, NCD + LJ, NCD + TZP; HFD + CTL, HFD + LJ, HFD + TZP; and WR + CTL, WR + LJ, WR + TZP. The volume of oxygen consumed (VO2), carbon dioxide produced (VCO2), respiratory exchange ratio (RER), energy expenditure, activity, and food intake were measured with PhenoMaster (TSE Systems, Bad Homburg, Germany). Indirect calorimetry was performed under controlled conditions, with a stable ambient temperature of 24 °C and a 12 h light/12-h dark cycle. Mice fed HFD were administered vehicle, LJ-4378, or TZP for 14 days, and the last 2 days of treatment were conducted during indirect calorimetry analysis. The WR model was examined by indirect calorimetry after 2 and 4 weeks of the weight regaining phase.
For protein extraction, we utilized PRO-RERP Protein Extraction Solution (17081, iNtRON Biotechnology, Gyeonggi-do, Korea), supplemented with […] Protease Inhibitor (S8820, Sigma, St. Louis, MO, USA) and PhosSTOP phosphatase inhibitor (#4906837001, Roche, Basel, Switzerland). Protein concentrations were determined using the Pierce BCA protein assay Kit (#23227, Thermo Fisher, Waltham, Massachusetts, USA) by measuring absorbance at 562 nm with a MultiSkan GO spectrophotometer (Thermo Fisher). The quantified proteins were loaded and separated in 12% SDS-PAGE gels and transferred to polyvinylidene difluoride (PVDF) membranes (Bio-Rad, Hercules, CA, USA). Membranes were blocked in 5% bovine serum albumin or skim milk in Tris-buffered saline with 0.1% Tween 20 (TBST) for 1 h, followed by overnight incubation with primary antibodies. The next day, membranes were washed 3 times with TBST and incubated for 1 h with horseradish peroxidase (HRP)-conjugated secondary antibody: Goat anti-rabbit (1:3000, #31460, Thermo Fisher) and Goat anti-Mouse IgG (1:3000, 115–035-174, Jackson ImmunoResearch). After secondary antibody incubation, membranes were washed 3 times with TBST and detected with the Fusion Solo chemiluminescence imaging system (Vilber Lourmat, France). EvolutionCapt (version 17.03) software and the ImageJ (National Institutes of Health, Bethesda, MD, USA) program were used for analysis and to quantify the protein level.
RT-qPCR was conducted according to the method (Cho et al. [2022]). The tissue samples were lysed in TRIzol (#15596018, Thermo Fisher), and the total RNA was extracted. The extracted RNA was synthesized into cDNA using the cDNA Reverse Transcription Kit (Applied Biosystems, Waltham, MA, USA). mRNA levels were quantified using iQ SYBR Green Supermix on the CFX Connect Real-time system (Bio-rad). Relative expression levels of each gene were calculated using the […] method, with the reference housekeeping gene as follows: Peptidylprolyl isomerase A (Ppia) for adipose tissue and glyceraldehyde-3-phosphate dehydrogenase (Gapdh) for hypothalamus.
The glucose tolerance test was conducted on mice fasted for 12 h with ad libitum access to water. Mice were intraperitoneally injected with 20% D-( +)-glucose (2 g/kg body weight, #49139, Sigma), and blood glucose levels were measured at each time point using a Gluco Doctor Top meter and strip (Allmedicus, South Korea).
Adipose tissues were fixed in 10% formalin (HT50128, Sigma) for 2 days and made into paraffin slides. The deparaffinized sections were stained with ClearView Staining Hematoxylin (MA010081, BBC Biochemical, Mount Vernon, WA, USA) and Eosin Y Alcoholic (#3610, BBC Biochemical) solution. The crown-like structure formation of gonadal white adipose tissue (gWAT) and triglyceride (TG) accumulation in the liver are observed using hematoxylin and eosin staining on paraffin slides. The images were captured using Nikon Elements (NIS BR Analysis ver 5.10.00). […]

[4] = system: WR mice; test: Weight rebound (WR) model: body weight, food intake, adiposity after treatment cessation; conditions: for body weight after treatment cessation: 4 weeks post-cessation on HFD; for food intake after withdrawal: 16 days after cessation; for body weight regained over 4 weeks as a percentage of the initial weight loss: WR groups, 4 weeks after 14-day treatment; for food intake during the 14-day treatment: measured every 2 days
Excerpt: as §1
Additionally, food consumption was measured every 2 days during the 14-day treatment period and for an additional 16 days post-administration.
Body composition and micro-CT analysis were performed after the treatment with vehicle, LJ-4378, or TZP for the indicated duration in HFD-fed mice and WR mice.
A nuclear magnetic resonance (NMR) technology system with EchoMRI-700 (Echo Medical Systems, […]) was used to analyze body composition.
To assess the abdominal fat volume, we employed the Quantum GX2 micro-CT imaging system (PerkinElmer, Waltham, MA, USA). Mice were anesthetized with isoflurane and positioned on the micro-CT bed for imaging of the abdominal region, defined from the proximal end of the L1 vertebra to the distal end of the L5 vertebra. Imaging was performed at 90 kV/88 µA with a field of view of 72 mm, a pixel size of 90 µm, and a 2-min acquisition time at standard resolution. Visceral, subcutaneous, and total abdominal fat volumes were quantified using AnalyzeDirect software (ver. 12.0, Overland Park, KS, USA).

[5] = 4 weeks after treatment cessation

Row | Compound | UCP1 expression in BAT, LJ-4378 versus TZP [1] | P-HSL, P-CREB, UCP1 and COXIV levels in BAT [1] | fasting glucose levels [2] | glucose tolerance (intraperitoneal glucose tolerance test) [2] | macrophage marker F4/80 and CLS formation in gWAT [3] | fasting glucose levels, versus TZP-treated group ([3]; 4 weeks post-treatment, WR) | glucose clearance in glucose tolerance test, versus TZP-treated group ([3]; 4 weeks post-treatment, WR) | hepatic triglyceride (TG) deposition, versus TZP ([3]; 4 weeks post-treatment, WR) | Tnf-α and Arg1 mRNA levels in gWAT ([3]; after 4 weeks of WR) | gWAT and visceral abdominal fat, compared with the TZP group [4, 5] | whole-body fat ratio, LJ-4378 versus TZP [4, 5] | body weight after treatment cessation [4] | food intake after withdrawal [4] | body weight regained over 4 weeks as a percentage of the initial weight loss [4] [%] | food intake during the 14-day treatment [4]
1 | CCCCC#Cc1nc(N)c2ncn([C@@H]3SC[C@@H](O)[C@H]3O)c2n1 [LJ-4378] | more strongly induced | elevated levels | significantly lower | markedly enhanced | maintained lower levels of macrophage accumulation | lower | enhanced glucose clearance | significantly lower | reduced Tnf-α and increased Arg1 mRNA levels were maintained | reduction | significantly lower | maintained a relatively low body weight | did not alter food intake during or after treatment | 88 | did not alter food intake during or after treatment
2 | Tirzepatide [TZP, reference compound] | – | elevated levels | significantly lower | markedly enhanced | re-elevated | – | – | – | – | – | – | rapid weight regain | sharp rebound in food consumption | 127 | significantly suppressed food intake
